The text below walks through data of patent publication US8431593B2, “Heteroaryl amide derivatives” (H. Lundbeck A/S, priority 2006, dated 2013).

SMILES strings stand for the structures. A value given as a limit tells only on which side of the number the result lay.

This assay deals with T1, P2X7 receptor (Homo sapiens, UniProt Q99572).
T1 construct: host or cells: SH-SY5Y
T1 sequence (Q99572 1-595): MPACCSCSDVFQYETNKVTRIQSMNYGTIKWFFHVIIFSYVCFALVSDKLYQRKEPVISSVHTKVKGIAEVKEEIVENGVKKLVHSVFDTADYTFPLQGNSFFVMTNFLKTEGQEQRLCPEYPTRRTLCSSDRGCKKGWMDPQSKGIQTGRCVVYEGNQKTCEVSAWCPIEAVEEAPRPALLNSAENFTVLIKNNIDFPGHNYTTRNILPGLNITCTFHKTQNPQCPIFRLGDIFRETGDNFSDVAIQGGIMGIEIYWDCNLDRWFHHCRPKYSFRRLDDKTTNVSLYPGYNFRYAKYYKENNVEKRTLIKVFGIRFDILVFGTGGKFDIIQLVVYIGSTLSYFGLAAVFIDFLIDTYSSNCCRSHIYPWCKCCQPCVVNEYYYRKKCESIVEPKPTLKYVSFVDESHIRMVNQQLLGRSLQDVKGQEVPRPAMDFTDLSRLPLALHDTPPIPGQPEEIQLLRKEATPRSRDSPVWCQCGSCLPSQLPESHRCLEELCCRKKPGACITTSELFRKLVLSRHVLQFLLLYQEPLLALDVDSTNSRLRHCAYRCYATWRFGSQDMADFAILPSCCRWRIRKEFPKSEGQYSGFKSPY
The assay is described as follows: P2X7 calcium mobilization assay, high throughput, antagonist activity (Example 4A). The following applies: 50% decrease in the fluorescence response of cells exposed to 80 μM of 2′(3′)-O-(4-benzoyl-benzoyl)adenosine 5′-triphosphate; determined as in Example 4A; read-out: IC50. The class given is cell-based. An outline of the steps:
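Dye-loaded cells (100,000/well, seeded previous day) are pre-exposed to compound for an hour at room temperature. Fluorescence maxima are baseline-corrected against no-agonist wells and compared with the averaged agonist-well maximum.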
Background: Calcium flux is commonly read through the fluorescence of an indicator in the cells.

By IC50 is commonly meant the midpoint of a concentration-inhibition curve. As for `COC1CCN(C(=O)Cc2cn3c(C(=O)NCC4(c5ccc(C(F)(F)F)cc5)CCCCC4)cccc3n2)CC1` [Compound 896, 2-[2-(4-methoxypiperidin-1 yl)-2-oxoethyl]-N-({1-[4-(trifluoromethyl)phenyl]cyclohexyl}methyl) imidazo[1,2-a] pyridine-5-carboxamide], the IC50 was below 2 µM.

For `COC1CCN(C(=O)Cc2cn3c(C(=O)NCC4(c5cccnc5)CCCCC4)cccc3n2)CC1` [Compound 897, 2-[2-(4-methoxypiperidin-1-yl)-2-oxoethyl]-N-[(1-pyridin-3-ylcyclohexyl)methyl] imidazo[1,2-a] pyridine-5-carboxamide], the IC50 is below 2 µM.

`COC1CCN(C(=O)Cc2cn3c(C(=O)NCC4(c5ccc(Cl)cc5)CCCCC4)cccc3n2)CC1` [Compound 898, N-{[1-(4-chlorophenyl)cyclohexyl]methyl}-2-[2-(4-methoxypiperidin-1-yl)-2-oxoethyl] imidazo[1,2-a] pyridine-5-carboxamide]: the IC50 was below 2 µM.

In the case of `CN(C)C1CCCN(C(=O)Cc2cn3c(C(=O)NCC4(c5ccc(Cl)cc5)CCOCC4)cccc3n2)C1` (stereo not shown) [Compound 899, N-{[4-(4-chlorophenyl)tetrahydro-2H-pyran-4-yl]methyl}-2-{2-[3-(dimethylamino)piperidin-1-yl]-2-oxoethyl} imidazo[1,2-a] pyridine-5-carboxamide], the IC50 was below 2 µM.

`O=C(O)CCc1cn2c(C(=O)NCC3(c4ccc(Cl)cc4)CCCCC3)cccc2n1` [Compound 900, 3-[5-({[1-(4-chlorophenyl)cyclohexyl]methyl}carbamoyl)imidazo[1,2-a]pyridin-2-yl] propanoic acid]: the IC50 was below 2 µM.

Take `CCOC(=O)Cc1nnn(Cc2cn3c(C(=O)NCC45CC6CC(CC(C6)C4)C5)cccc3n2)n1` [Compound 901, ethyl [2-({5-[(adamantan-1-ylmethyl)carbamoyl]imidazo[1,2-a]pyridin-2-yl}methyl)-2H-tetrazol-5-yl]acetate]: the IC50 was below 2 µM.

Consider `CCOC(=O)Cc1nnnn1Cc1cn2c(C(=O)NCC34CC5CC(CC(C5)C3)C4)cccc2n1` [Compound 902, ethyl [1-({5-[(adamantan-1-ylmethyl)carbamoyl]imidazo[1,2-a]pyridin-2-yl}methyl)-1H-tetrazol-5-yl]acetate], for which the IC50 was below 2 µM.

For the compound `O=C(O)Cc1nnn(Cc2cn3c(C(=O)NCC45CC6CC(CC(C6)C4)C5)cccc3n2)n1` [Compound 903, [2-({5-[(adamantan-1-ylmethyl)carbamoyl]imidazo[1,2-a]pyridin-2-yl}methyl)-2H-tetrazol-5-yl]acetic acid], the IC50 is below 2 µM.

With `O=C(O)Cc1nnnn1Cc1cn2c(C(=O)NCC34CC5CC(CC(C5)C3)C4)cccc2n1` [Compound 904, [1-({5-[(adamantan-1-ylmethyl)carbamoyl]imidazo[1,2-a]pyridin-2-yl}methyl)-1H-tetrazol-5-yl]acetic acid], the IC50 is below 2 µM.

As for `CCCC(C(=O)OCC)c1cn2c(C(=O)NCC34CC5CC(CC(C5)C3)C4)cccc2n1` (stereo not shown) [Compound 905, ethyl 2-{5-[(adamantan-1-ylmethyl)carbamoyl]imidazo[1,2-a]pyridin-2-yl}pentanoate], the IC50 is below 2 µM.

`CCCCC(C(=O)OCC)c1cn2c(C(=O)NCC34CC5CC(CC(C5)C3)C4)cccc2n1` (stereo not shown) [Compound 906, ethyl 2-{5-[(adamantan-1-ylmethyl)carbamoyl]imidazo[1,2-a]pyridin-2-yl} hexanoate]: the IC50 is below 2 µM.

For the compound `CCOC(=O)C(CCC(C)C)c1cn2c(C(=O)NCC34CC5CC(CC(C5)C3)C4)cccc2n1` (stereo not shown) [Compound 907, ethyl 2-{5-[(adamantan-1-ylmethyl)carbamoyl]imidazo[1,2-a]pyridin-2-yl}-5-methylhexanoate], the IC50 is below 2 µM.

For the compound `CCCCC(C(=O)O)c1cn2c(C(=O)NCC34CC5CC(CC(C5)C3)C4)cccc2n1` (stereo not shown) [Compound 908, 2-{5-[(adamantan-1-ylmethyl)carbamoyl]imidazo[1,2-a]pyridin-2-yl} hexanoic acid], the IC50 was below 2 µM.

On to `CCCC(C(=O)O)c1cn2c(C(=O)NCC34CC5CC(CC(C5)C3)C4)cccc2n1` (stereo not shown) [Compound 909, 2-{5-[(adamantan-1-ylmethyl)carbamoyl]imidazo[1,2-a]pyridin-2-yl}pentanoic acid], for which the IC50 is below 2 µM.

Regarding `N[C@@H]1CCN(Cc2cn3c(C(=O)NCC4(c5ccc(Cl)cc5)CCOCC4)cccc3n2)C1` [Compound 910, 2-{[(3R)-3-aminopyrrolidin-1-yl]methyl}-N-{[4-(4-chlorophenyl)tetrahydro-2H-pyran-4-yl]methyl} imidazo[1,2-a] pyridine-5-carboxamide], the IC50 is below 2 µM.

Turning to `O=C(Cc1cn2c(C(=O)NCC34CC5CC(CC(C5)C3)C4)cccc2n1)N[C@H]1CCNC1` [Compound 911, N-(adamantan-1-ylmethyl)-2-{2-oxo-2-[(3S)-pyrrolidin-3-ylamino]ethyl} imidazo [1,2-a]pyridine-5-carboxamide], the half-inhibitory concentration (IC50) was below 2 µM.

`CC(C)CCC(C(=O)O)c1cn2c(C(=O)NCC34CC5CC(CC(C5)C3)C4)cccc2n1` (stereo not shown) [Compound 912, 2-{5-[(adamantan-1-ylmethyl)carbamoyl]imidazo[1,2-a]pyridin-2-yl}-5-methylhexanoic acid]: the IC50 is below 2 µM.

For the compound `CCOC(=O)Cc1cn2c(C(=O)NCC(CC(C)C)c3ccc(Cl)cc3)cccc2n1` (stereo not shown) [Compound 913, ethyl (5-{[2-(4-chlorophenyl)-4-methylpentyl]carbamoyl}imidazo[1,2-a]pyridin-2-yl) acetate], the IC50 was below 2 µM.

Take `CCOC(=O)Cc1cn2c(C(=O)NCC3(c4ccc(Cl)cc4)CCCCC3)cccc2n1` [Compound 914, ethyl [5-({[1-(4-chlorophenyl)cyclohexyl]methyl}carbamoyl)imidazo[1,2-a]pyridin-2-yl] acetate]: the IC50 was below 2 µM.

In the case of `O=C(NCC1(c2ccc(Cl)cc2)CCCCC1)c1cccc2nc(CSc3nnn[nH]3)cn12` [Compound 915, N-{[1-(4-chlorophenyl)cyclohexyl]methyl}-2-[(1H-tetrazol-5-ylthio)methyl] imidazo [1,2-a]pyridine-5-carboxamide], the IC50 is below 2 µM.

On to `CC(C)CC(CNC(=O)c1cccc2nc(CN3CCC[C@@H](N)C3)cn12)c1ccc(Cl)cc1` (stereo partly drawn) [Compound 916, 2-{[(3R)-3-aminopiperidin-1-yl]methyl}-N-[2-(4-chlorophenyl)-4-methylpentyl] imidazo [1,2-a]pyridine-5-carboxamide], for which the IC50 was below 2 µM.

In the case of `Cc1ccc(C(CNC(=O)c2cccc3nc(Cn4nnc(CCO)n4)cn23)CC(C)C)cc1` (stereo not shown) [Compound 917, 2-{[5-(2-hydroxyethyl)-2H-tetrazol-2-yl]methyl}-N-[4-methyl-2-(4-methylphenyl)pentyl] imidazo [1,2-a]pyridine-5-carboxamide], the IC50 was below 2 µM.

On to `CC(C)CC(CNC(=O)c1cccc2nc(Cn3nnc(CCO)n3)cn12)c1ccc(Cl)cc1` (stereo not shown) [Compound 918, N-[2-(4-chlorophenyl)-4-methylpentyl]-2-{[5-(2-hydroxyethyl)-2H-tetrazol-2-yl]methyl}imidazo[1,2-a]pyridine-5-carboxamide], for which the IC50 is below 2 µM.

For `O=C(NCC1(c2ccc(Cl)cc2)CCCCC1)c1cccc2nc(Cn3nnc(CCO)n3)cn12` [Compound 919, N-{[1-(4-chlorophenyl)cyclohexyl]methyl}-2-{[5-(2-hydroxyethyl)-2H-tetrazol-2-yl]methyl}imidazo[1,2-a]pyridine-5-carboxamide], the IC50 was below 2 µM.

For the compound `O=C(NCC1(c2ccc(C(F)(F)F)cc2)CCCCC1)c1cccc2nc(Cn3nnc(CCO)n3)cn12` [Compound 920, 2-{[5-(2-hydroxyethyl)-2H-tetrazol-2-yl]methyl}-N-({1-[4-(trifluoromethyl)phenyl]cyclohexyl}methyl)imidazo [1,2-a]pyridine-5-carboxamide], the IC50 was below 2 µM.

As to `O=C(NCC1(c2cccnc2)CCCCC1)c1cccc2nc(Cn3nnc(CCO)n3)cn12` [Compound 921, 2-{[5-(2-hydroxyethyl)-2H-tetrazol-2-yl]methyl}-N-[(1-pyridin-3-ylcyclohexyl)methyl] imidazo[1,2-a] pyridine-5-carboxamide], the IC50 was below 2 µM.

Consider `Cc1ccc(C2(CNC(=O)c3cccc4nc(Cn5nnc(CCO)n5)cn34)CCCCC2)cn1` [Compound 922, 2-{[5-(2-hydroxyethyl)-2H-tetrazol-2-yl]methyl}-N-{[1-(6-methylpyridin-3-yl)cyclohexyl]methyl} imidazo[1,2-a] pyridine-5-carboxamide], for which the IC50 was below 2 µM.

As to `CC1=NCCN1Cc1cn2c(C(=O)NCC(CC(C)C)c3ccc(Cl)cc3)cccc2n1` (stereo not shown) [Compound 923, N-[2-(4-chlorophenyl)-4-methylpentyl]-2-[(2-methyl-4,5-dihydro-1H-imidazol-1-yl)methyl]imidazo[1,2-a]pyridine-5-carboxamide], the IC50 was below 2 µM.
